The source of these data is patent publication US20040197335A1, “Non-myeloablative tolerogenic treatment with tyrphostins” (priority 2003, published 2004).

Where two headings read alike, the source gives them in different places.

What all share (assay type): cell-based
Test [1] has as its system Human PBMC incubated with MHC-mismatched PBMC. Put plainly: One-way mixed lymphocyte reaction (primary MLR), [3H]TdR uptake. Conditions: for IC50: Table 5, some values marked (mean), read-out: IC 50% (inhibition of Primary MLR); for % response (alloreactive relative response, cpm with/without tyrphostin x100): FIG. 2, response without tyrphostin = 100%; for cpm: no tyrphostin 10,734 cpm; for cpm ± SD: no tyrphostin 30,520 cpm. How it is done: Cell sources: Human peripheral blood mononuclear cells (PBMC) were obtained from healthy human donors after separation on Ficoll-Paque density gradient essentially as described in Boyum, A. Scand. J Lab. Invest. […] Reagents:
One-way mixed lymphocyte reaction (MLR assay): Responding cells derived from donor A (5×10^4) were cultured in round-bottom microwell plates with an equal number (5×10^4) of irradiated (6000 cGy) donor B PBMC with and without tyrphostins. […] During the last 18 hours of incubation, cultures were pulsed with 2 μCi of [^3H] TdR.
(§1) Harvesting and radioactivity determination: Harvesting was carried out by a multiple-sample cell harvester and radioactivity, expressed in counts per minutes (cpm), was determined in a liquid scintillation β-counter.
Human PBMC were incubated either with autologous or with MHC-mismatched PBMC in a one-way MLR assay, with and without various concentrations of tyrphostins, as is described hereinabove.
In this case, the alloreactive response without the tyrphostins was considered as 100% response. Percentage of response was calculated according to the following formula: b/a×100; where a=cpm in cultures without tyrphostin, b=cpm in cultures with tyrphostin.

Test [2] has as its system donor A anti-donor B-primed human PBMC vs donor B PBMC. Put plainly: Secondary MLR of alloantigen-primed PBMC against priming donor B. The conditions noted are these: then removed, priming without tyrphostin = 100%. How it is done:
(§2) PBMC from donor A (10×10^6) were stimulated with equal number of irradiated (6000 cGy) donor B PBMC, with and without tyrphostins, in a total volume of 20 ml culture medium supplemented with 10% heat inactivated human AB^+ serum (mixed lymphocyte culture, MLC). Cultures were placed vertically in 25 cm tissue culture flasks in a 5% CO2, humidified incubator at 37° C. After 10 days, cells were washed twice to remove the tyrphostin, and tested for their ability to respond in the MLR and the primary mitogenic response assay described hereinabove.
(§3) The alloreactivity of donor A anti-donor B-primed cells (5×10^4) was tested in a 6-day one-way primary MLR assay against third party unrelated donor C PBMC (10^5), or against donor A cells (background control). Cultures were placed in round-bottom microwell plates. On day 5, cultures were pulsed with 2 μCi [^3H] TdR/well for 16-18 hours and then harvested. […] After 48 hours at 37° C. in a 5% CO2 humidified incubator, cultures were pulsed with 2 μCi [^3H] TdR for another 16-18 hours and then harvested.
as §1
(§4) […] After 10 days the tyrphostin was removed and the primed cells were tested for their ability to respond in a secondary MLR assay against the priming (donor B) alloantigens, in a primary MLR assay against third party unrelated alloantigens (donor C), and to non-specific stimulation in a mitogenic assay. […] Percentage of response was calculated according to the formula described above.

The subject of test [3] is donor A anti-donor B-primed human PBMC vs third party unrelated donor C PBMC. Put plainly: Primary MLR of alloantigen-primed PBMC against third party unrelated donor C. Conditions: then removed, priming without tyrphostin = 100%. How it is done:
as §2, §3, §1, §4

The test system of test [4] is donor A anti-donor B-primed human PBMC stimulated with PHA. The test is described as follows: Mitogenic response (PHA) of alloantigen-primed PBMC. The conditions noted are these: then removed, priming without tyrphostin = 100%. The protocol:
as §2
Cultures were incubated for 48 hours in a total volume of 0.2 ml culture medium supplemented with 10% heat-inactivated human AB^+ serum at 37° C. in a 5% CO2 humidified incubator, pulsed for 16-18 hours with 1 μCi [^3H]TdR/well, and then harvested.
as §1, §4

Test [5] relates to Human PBMC stimulated with phytohemagglutinin (PHA). The test is described as follows: Primary mitogenic response assay (PHA), [3H]TdR uptake. Conditions: Table 6, tyrphostin 20 μM; for inhibition at 20 µM: Homo sapiens, PBMC, 96 h; for cpm ± SD: PHA without tyrphostin 14,959±644, medium 155±37. How it is done: Mitogens: Phytohemagglutinin (PHA) and concanavalin A (Con-A) were dissolved in saline and diluted to their final concentration in culture medium. Anti-CD3 (OK3 stock solution 1 μg/ml) was diluted to 0.2 μg/ml final concentration in culture medium.
Responding PBMC cells (10^5) derived from donor A were cultured in flat-bottom microwell plates with and without tyrphostins, and with phytohemagglutinin (PHA) 1 μg/ml, or concanavalin A 18 μg/ml. […] During the last 18 hours of incubation, cultures were pulsed with 1 μCi of [^3H] TdR.
as §1

Setting [6] is: primed 10 days with tyrphostin 20 μM.
The mark [7] stands for this setting: primed 10 days with tyrphostin 40 μM.
The mark [8] stands for this setting: primed 10 days with tyrphostin 5 μM.
Setting [9] is: primed 10 days with tyrphostin 10 μM.
The mark [10] stands for this setting: Table 2, primary MLR, tyrphostin 5 μM.
[11] abbreviates: Table 2, primary MLR, tyrphostin 10 μM.
[12] abbreviates: Homo sapiens, PBMC, 144 h, Table 2, primary MLR, tyrphostin 50 μM.
Setting [13] is: Table 2, primary MLR, tyrphostin 50 μM.
Where [14] appears, read: Homo sapiens, PBMC, 144 h, Table 3, primary MLR, tyrphostin 25 μM.
Where [15] appears, read: Homo sapiens, PBMC, 144 h, Table 3, primary MLR, tyrphostin 50 μM.
Where [16] appears, read: Table 3, primary MLR, tyrphostin 25 μM.
Where [17] appears, read: Table 3, primary MLR, tyrphostin 50 μM.

As for “3-(3,5-dimethyl-H-pyrrol-2-yl-methylene)-2-oxo-2,3-dihydro-1H-indole-5-sulfonic acid dimethylamide [Tyr 16]”, the “% Inhibition” value in test [1] (Table 4, primary MLR, tyrphostin 1 μM) was 62%. Moreover, the IC50 in test [1] is 4 µM.
As to `N#CC(=Cc1cc(O)c(O)c(CSCCCc2ccccc2)c1)C(=O)NCc1ccccc1` [Tyr 2, N-benzyl-2-cyano-3-[3,4-dihydroxy-5-(3-phenylpropylsulfanylmethyl)-phenyl]-acrylamide], the “% Response to primary stimulator” value in test [2] (setting [6]) is 280%; in test [2] (setting [7]), 15%. The “% response (alloreactive relative response, cpm with/without tyrphostin x100)” value in test [1] (primary MLR, tyrphostin 10 μM) is listed as 73%; in test [1] (primary MLR, tyrphostin 50 μM), 0%. In test [1] (Homo sapiens, PBMC, 144 h, Table 2, primary MLR, tyrphostin 20 μM), this compound yielded an inhibition at 20 µM of 73%. Testing at 40 µM in test [1] (Homo sapiens, PBMC, 144 h, Table 2, primary MLR, tyrphostin 40 μM) gave an inhibition of 95%. The IC50 in test [1] (Homo sapiens, PBMC) was 22 µM. Moreover, the cpm is on record as 2,863 cpm in test [1] (Table 2, primary MLR, tyrphostin 20 μM) and 490 cpm in test [1] (Table 2, primary MLR, tyrphostin 40 μM). Moreover, the “% Response to unrelated stimulator” value was found to be 257% in test [3] (setting [6]) and 138% in test [3] (setting [7]). Besides, the “% Response to PHA” value in test [4] (setting [6]) was determined as 900%; in test [4] (setting [7]) it was 254%.
Consider `Cc1ccc(-c2nn(C(C)(C)C)c3ncnc(N)c23)cc1` [Tyr 3, 4-amino-1-t-butyl-3-(p-toluyl)pyrazolo[3,4-d]pyrimidine], for which the “% Response to primary stimulator” value in test [2] (setting [8]) turned out to be 65%; in test [2] (setting [9]) it was 24 ± 10%; in test [2] (setting [6]), 24 ± 18%. This compound registered an inhibition at 20 µM in test [5] (mitogenic response) of 98%. Also, the “cpm ± SD” value in test [5] is 300 ± 24 cpm. Besides, the cpm is 3,130 cpm in test [1] (setting [10]) and 145 cpm in test [1] (setting [11]). The “% Response to unrelated stimulator” value in test [3] (setting [8]) is given as 55%; in test [3] (setting [9]), 206 ± 99%; in test [3] (setting [6]), 57 ± 44^ %. Moreover, the “% Response to PHA” value in test [4] (setting [8]) was 26%; in test [4] (setting [9]), 110 ± 35%; in test [4] (setting [6]), 30 ± 28^ %.
For the compound `CC(C)(C)n1nc(-c2ccc(Cl)cc2)c2c(N)ncnc21` [Tyr 4, 4-amino-1-t-butyl-3-(p-chlorophenyl)pyrazolo[3,4-d]pyrimidine], the “% Response to primary stimulator” value amounted to 132% in test [2] (setting [8]), 13 ± 4.5% in test [2] (setting [9]) and 6.5 ± 0.5% in test [2] (setting [6]). In test [5] (mitogenic response), this compound showed an inhibition at 20 µM of 98%. Further, the “cpm ± SD” value in test [5] was determined as 230 ± 115 cpm. Moreover, the cpm is listed as 3,316 cpm in test [1] (setting [10]) and 580 cpm in test [1] (setting [11]). Moreover, the “% Response to unrelated stimulator” value is reported as 145% in test [3] (setting [8]), 288 ± 122^ % in test [3] (setting [9]) and 204 ± 18% in test [3] (setting [6]). In addition, the results for the “% Response to PHA” value in test [4] (setting [8]), in test [4] (setting [9]) and in test [4] (setting [6]) were 29%, 120 ± 40% and 40 ± 32^ %, respectively.
Consider `N#CC(=Cc1ccc(O)c(O)c1)C(=O)NCCCCc1ccccc1` [Tyr 5, 2-cyano-3-(3,4-dihydroxyphenyl)-N-(4-phenylbutyl)-acrylamide], for which the “% response (alloreactive relative response, cpm with/without tyrphostin x100)” value in test [1] (primary MLR, tyrphostin 10 μM) stood at 32%; in test [1] (primary MLR, tyrphostin 50 μM), 13%. Besides, the inhibition at 10 µM in test [1] (Homo sapiens, PBMC, 144 h, Table 2, primary MLR, tyrphostin 10 μM) came to 40%. Besides, in test [1] (setting [12]), 50 µM produced 70% inhibition. In addition, the IC50 in test [1] (Homo sapiens, PBMC) worked out at 34 µM. The cpm is listed as 6,413 cpm in test [1] (setting [11]) and 3,156 cpm in test [1] (setting [13]).
Compound `N#CC(C#N)=Cc1ccc([N+](=O)[O-])c(O)c1` [Tyr 7, 2-(3-hydroxy-4-nitro-benzylidene)malononitrile] yielded an inhibition at 50 µM in test [1] (setting [12]) of 50%. The inhibition at 100 µM in test [1] (Homo sapiens, PBMC, 144 h, Table 2, primary MLR, tyrphostin 100 μM) was found to be 95%. Further, the IC50 in test [1] (Homo sapiens, PBMC) was found to be 36 µM. Besides, the cpm in test [1] (setting [13]) is reported as 5,348 cpm; in test [1] (Table 2, primary MLR, tyrphostin 100 μM), 512 cpm.
The compound `COc1cc2ncnc(Nc3ccc(C(N)=O)cc3)c2cc1OC` [Tyr 8, 4-(6,7-dimethoxyquinazoline-4-yl-amino)-benzamide] registered an inhibition at 25 µM in test [1] (setting [14]) of 49%. The inhibition at 50 µM in test [1] (setting [15]) is 63%. Besides, in test [1] (Homo sapiens, PBMC), the IC50 worked out at 43 µM. The “cpm ± SD” value is 12,452 cpm in test [1] (setting [16]) and 11,293 cpm in test [1] (setting [17]).
Regarding `COc1cc2ncnc(Nc3ccc(O)cc3)c2cc1OC` [Tyr 9, 4-(6,7-dimethoxyquinazoline-4-yl-amino)-phenol], testing at 20 µM in test [5] (mitogenic response) gave an inhibition of 70%. For the same compound, the “cpm ± SD” value is recorded as 4,582 ± 617 cpm in test [5], 1,367 cpm in test [1] (setting [16]) and 371 cpm in test [1] (setting [17]). Besides, testing at 25 µM in test [1] (setting [14]) gave an inhibition of 95%. For the same compound, the inhibition at 50 µM in test [1] (setting [15]) worked out at 99%. Moreover, the IC50 in test [1] (Homo sapiens, PBMC) came out at 26 µM.
For the compound `CC(C)(C)n1nc(-c2cccs2)c2c(N)ncnc21` [Tyr 15, 4-amino-1-t-butyl-3-(2-thiophene)pyrazolo[3,4-d]pyrimidine], the IC50 in test [1] came to 7 µM.
For `COc1ccc(-c2nn(C(C)(C)C)c3ncnc(N)c23)cc1OC` [Tyr 19, 4-amino-1-t-butyl-3-(3,4-dimethoxyphenyl)-pyrazolo[3,4-d]pyrimidine], the inhibition at 20 µM in test [5] (mitogenic response) was 96%; in test [1] (Homo sapiens, PBMC, 144 h, Table 4, primary MLR, tyrphostin 20 μM), 80%. Also, the “cpm ± SD” value in test [5] is recorded as 553 ± 59 cpm. This compound also showed an inhibition at 10 µM in test [1] (Homo sapiens, PBMC, 144 h, Table 4, primary MLR, tyrphostin 10 μM) of 63%. Moreover, the IC50 in test [1] (Homo sapiens, PBMC) came to 3 µM.
`CC(C)(C)c1cc(C=C(C#N)C(N)=S)cc(C(C)(C)C)c1O` [Tyr 23, 2-cyano-3-(3,5-di-t-butyl-4-hydroxyphenyl)-thioacrylamide] came in with an inhibition at 20 µM in test [5] (mitogenic response) of 68%. Further, the “cpm ± SD” value in test [5] was 4,831 ± 1026 cpm.
As for `N#CC(=Cc1c[nH]c2ccccc12)c1[nH]nc(N)c1C#N` [Tyr 24, 3-amino-5-[1-cyano-2-(1H-indol-3-yl)vinyl]-1H-pyrazole-4-carbonitrile], the inhibition at 20 µM in test [5] (mitogenic response) came out at 96%. Moreover, in test [5], the “cpm ± SD” value is on record as 533 ± 45 cpm.
In the same order, the values of `N#CC(=Cc1ccc(O)c(O)c1)C(=S)NCc1ccccc1` [Tyr 26, N-benzyl-2-cyano-3-(3,4-dihydroxyphenyl)-thioacrylamide] are 70% and 4,295 ± 221 cpm.
Take `N#CC(=Cc1cc(O)c(O)c(I)c1)C(=O)NCCCc1ccccc1` [Tyr 32, 2-cyano-3-(3,4-dihydroxy-5-iodophenyl)-N-(4-phenylpropyl)-acrylamide]: in test [5] (mitogenic response), the “% Inhibition” value is 58%. Besides, the “cpm ± SD” value in test [5] is listed as 6,303 ± 1205 cpm.

Broadly, the % Inhibition is the change of the read-out against control, counted positive when it falls. Low values mean little suppression, high ones strong suppression. A word on the inhibition: it is the relative decrease from the control value, in per cent. Low values mean little suppression, high ones strong suppression.
